From US7122651B1, “Nucleic acid molecules encoding opioid growth factor receptors” (priority 1998, dated 2006)

How the values were obtained:
[1] = system: SK-N-AS human neuroblastoma cell line; test: Cell number in SK-N-AS cultures (trypan blue, hemacytometer); format: cell-based; conditions: 10^−6 M, SK-N-AS cells
Protocol: FIG. 10 depicts histogram of cell number in cultures of SK-N-AS human neuroblastoma cells treated for 48 hr with either sterile water (CO), 10^−6 M NTX, 10^−6 M S-ODN, or scrambled oligonucleotide. Cells (6×10^3) were plated and compounds and fresh media added 24 hr and 48 hr later. After 72 hr in culture, cells were trypsinized, stained with trypan blue, and counted with a hemacytometer.
To study the function of the isolated cDNA with respect to regulation of cell growth, a 23-mer antisense S-ODN (nuclease-resistant phosphorothioate; Oligo, Etc., Bethel, Me.) targeted against a sequence containing the translation initiation site of the OGF binding protein was designed: 5′-[…]-3′ (antisense, SEQ ID NO: 17). A scrambled (control) S-ODN was also designed: 5′-[…]-3′ (SEQ ID NO: 18).
The SK-N-AS human neuroblastoma cell line (American Type Tissue Culture Collection, Manassas, Va.) was grown in Dulbecco's medium supplemented with 10% fetal calf serum. For experimentation, 6×10^3 cells/well in a 24-well plate were seeded and, 24 hr later, 10^−6 M concentrations of the antisense or the scrambled S-ODN was added. […] After 72 hr in culture, cells were trypsinized, stained with trypan blue, and counted with a hemacytometer. Data from the antisense experiments were evaluated with ANOVA, and subsequent comparisons made with the Newman-Keuls tests.

[2] = molecular target: T1, nuclear homogenates of human pancreatic tumor cells (PANC-1) (Homo sapiens, UniProt Q9NZT2); test: Competition for binding of [^3H]-[Met^5]-enkephalin in PANC-1 nuclear homogenates; conditions: for competition for [^3H][Met^5]-enkephalin binding: 1 or 2 nM radioligand
T1 construct: host or cells: PANC-1; nuclear (P1) homogenates, and P2, P3 and S3 fractions in the fractionation study
T1 sequence (Q9NZT2 1-677): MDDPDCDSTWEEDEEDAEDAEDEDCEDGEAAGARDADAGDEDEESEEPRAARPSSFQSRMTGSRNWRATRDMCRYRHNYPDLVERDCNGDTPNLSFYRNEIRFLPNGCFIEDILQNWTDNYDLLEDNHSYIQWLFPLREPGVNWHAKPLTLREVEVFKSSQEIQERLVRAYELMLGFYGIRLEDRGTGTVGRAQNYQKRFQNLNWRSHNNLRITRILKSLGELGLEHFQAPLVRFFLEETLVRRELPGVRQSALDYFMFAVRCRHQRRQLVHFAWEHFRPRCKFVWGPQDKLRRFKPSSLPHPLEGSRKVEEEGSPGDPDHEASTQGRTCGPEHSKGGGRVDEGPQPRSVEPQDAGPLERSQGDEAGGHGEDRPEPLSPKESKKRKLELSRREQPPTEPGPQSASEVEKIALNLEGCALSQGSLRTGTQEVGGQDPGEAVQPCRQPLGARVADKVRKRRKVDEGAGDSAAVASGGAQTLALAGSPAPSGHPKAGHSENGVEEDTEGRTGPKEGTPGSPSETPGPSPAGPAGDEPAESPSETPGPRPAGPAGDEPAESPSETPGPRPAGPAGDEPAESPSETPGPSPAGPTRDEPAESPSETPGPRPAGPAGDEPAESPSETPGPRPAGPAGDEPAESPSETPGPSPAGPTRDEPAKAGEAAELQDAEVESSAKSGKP
Protocol: Each concentration was run in triplicate and every compound was tested twice.
(§1) Analysis and statistics. Receptor binding data were analyzed with either the Lundon I (Saturation Isotherm Binding Analysis) computer program (Lundon Software, Cleveland, Ohio) or GraphPad Prism software. Both programs utilize nonlinear least-squares regression. Binding isotherms and Scatchard plots were computed directly by the programs. […] Comparisons of Bmax and Kd values were made using analysis of variance and posthoc Newman-Keuls tests.
Competition experiments using 1 or 2 nM [^3H]

[3] = molecular target: human pancreatic cancer tissue (Homo sapiens, UniProt Q9NZT2)
Protocol: (§2) Receptor binding assays. Homogenates of nuclear protein were diluted with Tris/all to the appropriate protein concentration and incubated at room temperature (22° C.) for 20 min to remove endogenous peptides. Aliquots of protein were resuspended to 0.95 ml and incubated with agitation with radioactive ligand. […] The final volume of the incubation mixture was 1 ml. Isotope incubation was terminated by rapid filtration through Whatman GF-B filters under vacuum pressure with a Brandel Cell Harvester. Filters were rinsed with ice-cold Tris/all buffer, dried at 60° C. for 1 hr and counted by liquid scintillation spectrometry (Beckman LS-2800). […] Duplicate tubes of homogenates were assayed for each concentration utilized. Protein concentrations were determined by the BioRad method with g-globulin as the standard.
Receptor binding assays were performed as stated above.

[4] = molecular target: T2, PANC-1 nuclear (P1) homogenates (Homo sapiens, UniProt Q9NZT2); test: Binding of [^3H]-[Met^5]-enkephalin to PANC-1 nuclear homogenates (saturation and characterization); conditions: for Binding, of the optimal binding at 22° C.: 2 nM ligand
T2 construct: host or cells: PANC-1; nuclear (P1) homogenates, and P2, P3 and S3 fractions in the fractionation study
T2 sequence (Q9NZT2 1-677): T1 sequence (Q9NZT2 1-677)
Protocol: (§3) Cell culture. PANC-1, Mia PaCa-2, BxPC-3, and Capan-1 cell lines were obtained from the American Type Culture Collection (Manassas, Va.). […] Panc-1 cells between passages 62–74 were used for the characterization studies.
(§4) Preparation of protein fractions. Cell cultures were harvested by scraping of the flasks, and cells were pelleted by centrifugation. The washed pellet was homogenized (Polytron, setting 5, 2×10 sec) in a 1:20 (wt/vol) solution of cold 50 mM Tris-HCl with 0.1 mg/ml bacitracin, 1 mg/ml leupeptin, 6 nM thiorphan, 1 mM EGTA, and 3.5 mM PMSF (pH 7.4) at 4° C.; this buffer is termed Tris/all.
as §2, §1

[5] = molecular target: Xenografts of Capan-1 growing in nude mice (Homo sapiens, UniProt Q9NZT2); conditions: Capan-1 xenograft, harvested 40 days after inoculation
Protocol: as §2

[6] = molecular target: MIA PaCA-2 nuclear fraction (Homo sapiens, UniProt Q9NZT2); conditions: MIA PaCA-2, log phase
Protocol: as §3, §4, §2

BxPC-3 nuclear fraction = BxPC-3 nuclear fraction (Homo sapiens, UniProt Q9NZT2); conditions: BxPC-3, log phase
Protocol: as §3, §4, §2

Capan-1 nuclear fraction = Capan-1 nuclear fraction (Homo sapiens, UniProt Q9NZT2); conditions: Capan-1, log phase
Protocol: as §3, §4, §2

[7] = molecular target: rat OGFr 12-GST fusion protein (cDNA clone #12); test: Saturation binding of [^3H]-[Met^5]-enkephalin to purified rat OGFr GST fusion protein; conditions: mean±SE, 6 assays, 22° C., 30 min, read-out: binding affinity (Kd)
rat OGFr 12-GST fusion protein (cDNA clone #12), sequence (as listed by the source): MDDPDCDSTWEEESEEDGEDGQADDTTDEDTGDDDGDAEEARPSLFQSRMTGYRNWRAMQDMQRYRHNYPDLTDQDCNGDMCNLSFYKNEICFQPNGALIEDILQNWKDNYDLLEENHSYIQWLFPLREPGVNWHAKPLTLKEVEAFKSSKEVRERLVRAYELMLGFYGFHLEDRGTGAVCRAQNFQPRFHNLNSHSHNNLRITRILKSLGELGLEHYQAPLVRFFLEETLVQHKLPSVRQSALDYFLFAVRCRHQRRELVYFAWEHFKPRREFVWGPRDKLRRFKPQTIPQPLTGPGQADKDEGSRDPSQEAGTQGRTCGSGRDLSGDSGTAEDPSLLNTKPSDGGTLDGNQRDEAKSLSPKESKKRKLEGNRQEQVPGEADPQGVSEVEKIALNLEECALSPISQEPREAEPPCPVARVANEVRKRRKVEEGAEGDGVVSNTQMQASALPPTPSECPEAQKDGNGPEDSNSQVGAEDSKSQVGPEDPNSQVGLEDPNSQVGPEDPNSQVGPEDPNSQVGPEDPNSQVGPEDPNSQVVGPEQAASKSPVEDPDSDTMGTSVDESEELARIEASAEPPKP
Protocol: Fusion proteins (80–120 ng/tube) were incubated for 30 min with shaking at 22° C. […] Binding was terminated by filtering homogenates through Whatman GF/B filters. Saturation isotherms were plotted using GraphPad Prism software (GraphPad Software Inc., San Diego, Calif.).

[8] = molecular target: nuclear-enriched fraction of human placenta; test: Binding of radiolabeled [Met^5]-enkephalin to human placenta; conditions: one-site model, read-out: binding affinity (Kd)
Source text: A one-site model of binding was noted.

normal human pancreas = normal human pancreas (Homo sapiens, UniProt Q9NZT2); conditions: 3 normal specimens
Protocol: Normal tissues (as determined from histological assessment) were obtained from two females and a person. […] Samples were collected and frozen in liquid nitrogen within 1 hr of surgery. Receptor binding assays were performed as stated above.

[9] = molecular target: PANC-1 subcellular fractions (P1, P2, P3, S3) (Homo sapiens, UniProt Q9NZT2)
Protocol: For subcellular fractionation studies, the supernatant of P1 was centrifuged at 39,000× g for 30 min to obtain a plasma membrane pellet (P2). The P2 supernatant was centrifuged overnight (100,000× g), resulting in a microsomal pellet (P3) and soluble supernatant (S3). All fractions were inspected for purity by phase-contrast microscopy.
as §2
Sucrose gradient centrifugation was performed to separate the nuclear (P1), membrane (P2), microsomal (P3), and soluble (S3) fractions (Table II).

[10] = molecular target: SCCHN enriched nuclear preparations (Homo sapiens, UniProt Q9NZT2)
Source text: (§5) Human tissue samples were representative of a variety of squamous cell carcinomas, including specimens from the oral cavity-larynx, and regional metastases. Normal mucosal specimens were obtained during uvu-lopalatopharyngoplasty.

[11] = molecular target: normal mucosa enriched nuclear preparations (Homo sapiens, UniProt Q9NZT2); conditions: normal epithelium
Source text: as §5

[12] = system: IEC-6 rat small intestine epithelial cell line; test: Cell number in IEC-6 cultures (trypan blue, hemacytometer); format: cell-based; conditions: 10^−6 M, 48 hr of exposure, IEC-6 cells
Protocol: FIG. 6 depicts histogram of cell number in cultures of IEC-6 rat intestinal epithelial cells treated for 48 hr with either sterile water (CO), 10^−6 M NTX, 10^−6 M 23-mer S-ODN (antisense), or scrambled oligoprobe (scrambled). Cells (5×10^3) were plated, and compounds and fresh media were added 24 hr and 48 hr later. After 72 hr in culture, cells were trypsinized, stained with trypan blue, and counted with a hemacytometer.
The IEC-6 rat small intestine epithelial cell line (American Type Tissue Culture Collection, Manassas, Va.) were grown in Dulbecco's medium supplemented with 10% fetal calf serum. For experiments, 5×10^3 cells/well in a 24-well plate were seeded and, 24 hr later, 10^−6 M concentrations of the antisense or the scrambled S-ODN were added. Some wells were exposed to 10^−6 NTX or an equivalent volume of sterile water. Media, S-ODNs, or drugs were changed daily. After 72 hr in culture, cells were trypsinized, stained with trypan blue, and counted with a hemacytometer; 3 wells/treatment group were assessed. The data were evaluated with ANOVA, and subsequent comparisons were made with the Newman-Keuls tests.

[13] = optimal conditions, P1 fraction

For “5′-GGTCGTCCATGCTCGGCTAGAAT-3′ (DNA, all phosphorothioate, methylation of C not given here) [antisense S-ODN (SEQ ID NO: 17)]”, the “elevation of cell number from control cultures” value (“elevation of cell number” for short) ([1]; 48 hr of exposure) was 60%.

For CC[C@]12CCN(CC3CC3)[C@H](C(=O)c3ccc(O)cc31)[C@@H]2C [EKC, ethylketocyclazocine], the “competition for [^3H][Met^5]-enkephalin binding” value (“competition” for short) [2] was “little or no competition”.

With [^3H]-[Met^5]-enkephalin the binding recorded ([3]; 3 further specimens) was “non-specific and non-saturable binding”, the Bmax ([3]; specimens from 3 patients) was 6.6±1.2 fmol/mg protein and the “time to reach binding equilibrium” value ([4]; 22° C.) was 60 to 75 min. For the same molecule, the Bmax ([4]; PANC-1, Table IV, at least 3 independent assays) was 28.9 ± 6.2 fmol/mg, the Bmax ([4]; PANC-1 Confluent, 5 days in culture) was 7.8 ± 0.0 fmol/mg protein and the Bmax ([4]; PANC-1 Log phase, 3 days in culture) was 20.7 ± 1.2 fmol/mg protein. The Bmax ([4]; PANC-1 Post-confluent, 7–8 days in culture) was 35.6 ± 0.3 fmol/mg protein, the “effect of length of time in culture on affinity” value ([4]; PANC-1 log phase, confluent, post-confluent) was “no effect” and the “reduction of binding capacity in contrast to post-confluent cells” value ([4]; confluent cultures) was 78%. The “Binding, of the optimal binding at 22° C.” value ([4]; incubation at 0° C.) was 12%, the “Binding, of the optimal binding at 22° C.” value ([4]; incubation at 37° C.) was 21% and the “reduction of binding capacity in contrast to post-confluent cells” value ([4]; log-phase cultures) was 42%. For the same molecule, the “Nonspecific binding, of the total binding” value [4, 13] was about 52%, the “maximal binding capacity (Bmax)” value [4, 13] was 36.4±4.1 fmol/mg protein and the Bmax [5] was 4.2±1.1 fmol/mg protein. The Bmax [6] was 11.9 ± 1.5 fmol/mg, the Bmax (BxPC-3 nuclear fraction) was 25.5 ± 9.7 fmol/mg and the Bmax (Capan-1 nuclear fraction) was 22.7 ± 9.5 fmol/mg. The Kd [7] was 2.8 ± 1.1 nM, the Kd [8] was 12.3 ± 3.9 nM and the Bmax (normal human pancreas) was 46.7±27.8 fmol/mg protein. For the same molecule, the Bmax ([9]; P1 fraction, Nuclear) was 21.8±4.8 fmol/mg protein, the “specific and saturable binding” value ([9]; fractions enriched in P2, P3, or S3) was “No specific and saturable binding” and the “Binding capacity (Bmax)” value ([10]; neoplastic specimens) was 13.6±1.9 fmol/mg protein. For the same molecule, the “Bmax of neoplastic specimens less than normal epithelium” value ([10]; p<0.01) was 6 fold and the “Binding capacity (Bmax)” value [11] was 80.8±32.8 fmol/mg protein.

For “Dynorphin A1-8 (YGGFLRRI) [κ receptor ligand]”, the “competition” value [2] was “little or no competition”.

β-endorphin was tested, and the IC50/Kd ([2]; competition with [^3H]-[Met^5]-enkephalin, at least 2 independent assays) was >10^−4.

For C[C@@H](NC(=O)[C@@H](N)Cc1ccc(O)cc1)C(=O)NCC(=O)N(C)[C@@H](Cc1ccccc1)C(=O)NCCO [DAMGO, [D-Ala^2, N-Me-Phe^4, Gly^5-ol]-enkephalin], the “competition” value [2] was “little or no competition”.

“5′-GACTCAGGGACTTAGCTTCATCC-3′ (DNA, all phosphorothioate, methylation of C not given here) [antisense S-ODN (SEQ ID NO: 15)]” was tested, and the “elevation of cell number” value [12] was 294%.

With O=C1CC[C@@]2(O)[C@H]3Cc4ccc(O)c5c4[C@@]2(CCN3CC2CC2)[C@H]1O5 [NTX, naltrexone] the “elevation of cell number” value [12] was 223% and the “growth relative to control cultures” value ([1]; 48 hr) was “increased cell growth from control values”.

In the case of Nc1nc2c(ncn2[C@@H]2O[C@H](COP(=O)(O)OP(=O)(O)NP(=O)(O)O)[C@@H](O)[C@H]2O)c(=O)[nH]1 [GppNHp, guanylylimidodiphosphate], the “effect on binding of [^3H]-[Met^5]-enkephalin” value ([4]; 50, 100, or 200 μM) is reported as “not markedly altered”.

With [Met^5]-enkephalin the “ability to displace [^3H][Met^5]enkephalin relative to the next ranking compound” value [2] was 100 fold.

For DPDPE [[D-Pen^2, Pen^5]-enkephalin], the “competition” value [2] was “little or no competition”.
